Test results reported in patent publication US11370763B2, “Compounds and compositions for treating conditions associated with NLRP activity” (Novartis AG, priority 2017, dated 2022).

System: IL-1β production in PMA-differentiated THP-1 cells
Assay: IL-1β production in PMA-differentiated THP-1 cells stimulated with gramicidin (hTHP-1 assay containing 2% fetal bovine serum; Procedures 1-3)
Format: cell-based, human
Conditions: Homo sapiens, THP-1, hTHP-1 assay containing 2% fetal bovine serum; class symbols; read-out: hTHP-1 IC50 (Average IC50 of compounds in hTHP-1 assay)
In short: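 THP-1 cells differentiated with PMA (20 ng/ml, 16-18 h), replated in 2% FBS RPMI (50,000 cells/well), preincubated 1 h with compound (top final 100 μM, 3-fold steps, 0.37% DMSO), then stimulated 2 h with gramicidin (5 μM). Supernatant IL-1β measured by HTRF.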

Row | SMILES | IC50
1 | CC(C)c1cc(-n2cccn2)cc(C(C)C)c1CC(=O)N=S(N)(=O)c1cnc(C(C)(C)O)s1 (stereo not drawn) [Example 107, N-(amino(2-(2-hydroxypropan-2-yl)thiazol-5-yl)(oxo)-λ^6-sulfaneylidene)-2-(2,6-diisopropyl-4-(1H-pyrazol-1-yl)phenyl)acetamide] | 5 to 30 µM
2 | COCc1cc(C(C)C)c(CC(=O)N=S(N)(=O)c2cnc(C(C)(C)O)s2)c(C(C)C)c1 (stereo not drawn) [Example 108, N-(amino(2-(2-hydroxypropan-2-yl)thiazol-5-yl)(oxo)-λ^6-sulfaneylidene)-2-(2,6-diisopropyl-4-(methoxymethyl)phenyl) acetamide] | 0.04 to 0.2 µM
3 | COCc1cc(C(C)C)c(CC(=O)N=S(N)(=O)c2cnc(C(C)(C)O)s2)c(C(C)C)c1F (stereo not drawn) [Example 109, N-(amino(2-(2-hydroxypropan-2-yl)thiazol-5-yl)(oxo)-λ^6-sulfaneylidene)-2-(3-fluoro-2,6-diisopropyl-4-(methoxymethyl)phenyl) acetamide] | 0.04 to 0.2 µM
4 | CC(C)c1cc(-c2ccc3ccccc3c2)cc(C(C)C)c1CC(=O)N=S(N)(=O)c1ncc(C(C)(C)O)s1 (stereo not drawn) [Example 110, N-(amino(5-(2-hydroxypropan-2-yl)thiazol-2-yl)(oxo)-λ^6-sulfaneylidene)-2-(2,6-diisopropyl-4-(naphthalen-2-yl)phenyl)acetamide] | 0.2 to 1 µM
5 | COCc1cc(C(C)C)c(CC(=O)N=S(N)(=O)c2ncc(C(C)(C)O)s2)c(C(C)C)c1 (stereo not drawn) [Example 111, N-(amino(5-(2-hydroxypropan-2-yl)thiazol-2-yl)(oxo)-λ^6-sulfaneylidene)-2-(2,6-diisopropyl-4-(methoxymethyl)phenyl) acetamide] | 0.04 to 0.2 µM
6 | CC(C)c1cc(-c2ccc(Cl)c(Cl)c2)cc(C(C)C)c1CC(=O)N=S(N)(=O)c1cnc(C(C)(C)O)s1 (stereo not drawn) [Example 112, N-(amino(2-(2-hydroxypropan-2-yl)thiazol-5-yl)(oxo)-λ^6-sulfaneylidene)-2-(3′,4′-dichloro-3,5-diisopropyl-[1,1′-biphenyl]-4-yl)acetamide] | 0.2 to 1 µM
7 | CC(C)c1cc(-c2ccc3ccccc3c2)cc(C(C)C)c1CC(=O)N=S(N)(=O)c1cnc(C(C)(C)O)s1 (stereo not drawn) [Example 113, N-(amino(2-(2-hydroxypropan-2-yl)thiazol-5-yl)(oxo)-λ^6-sulfaneylidene)-2-(2,6-diisopropyl-4-(naphthalen-2-yl)phenyl)acetamide] | 0.008 to 0.04 µM
8 | CC(C)c1ccc(C#N)c(C(C)C)c1CC(=O)N=S(N)(=O)c1cnc(C(C)(C)O)s1 (stereo not drawn) [Example 114, N-(amino(2-(2-hydroxypropan-2-yl)thiazol-5-yl)(oxo)-λ^6-sulfaneylidene)-2-(3-cyano-2,6-diisopropylphenyl)acetamide] | 1 to 5 µM
9 | CC(C)c1c(F)c(C#N)cc(C2CC2)c1CC(=O)N=S(N)(=O)c1sc(C(C)(C)O)nc1CO (stereo not drawn) [Example 115, N-(amino(4-(hydroxymethyl)-2-(2-hydroxypropan-2-yl)thiazol-5-yl)(oxo)-λ^6-sulfaneylidene)-2-(4-cyano-6-cyclopropyl-3-fluoro-2-isopropylphenyl)acetamide] | 0.2 to 1 µM
10 | COc1ccc2cc(-c3cc(C(C)C)c(CC(=O)N=S(N)(=O)c4cnc(C(C)(C)O)s4)c(C(C)C)c3)ccc2c1 (stereo not drawn) [Example 116, N-(amino(2-(2-hydroxypropan-2-yl)thiazol-5-yl)(oxo)-λ^6-sulfaneylidene)-2-(2,6-diisopropyl-4-(6-methoxynaphthalen-2-yl)phenyl)acetamide] | 5 to 30 µM
11 | CC(C)c1cc(-c2ccc3c(c2)OC(F)(F)O3)cc(C(C)C)c1CC(=O)N=S(N)(=O)c1ncc(C(C)(C)O)s1 (stereo not drawn) [Example 117, N-(amino(5-(2-hydroxypropan-2-yl)thiazol-2-yl)(oxo)-λ^6-sulfaneylidene)-2-(4-(2,2-difluorobenzo[d][1,3]dioxol-5-yl)-2,6-diisopropylphenyl)acetamide] | 0.04 to 0.2 µM
12 | CC(C)c1cc(-c2ccc3c(c2)OC(F)(F)O3)cc(C(C)C)c1CC(=O)N=S(N)(=O)c1cnc(C(C)(C)O)s1 (stereo not drawn) [Example 118, N-(amino(2-(2-hydroxypropan-2-yl)thiazol-5-yl)(oxo)-λ^6-sulfaneylidene)-2-(4-(2,2-difluorobenzo[d][1,3]dioxol-5-yl)-2,6-diisopropylphenyl)acetamide] | 0.2 to 1 µM
13 | CC(C)c1ccc(F)c(C(C)C)c1CC(=O)N=S(N)(=O)c1nc(C(C)(C)O)cs1 (stereo not drawn) [Example 119, N-(amino(4-(2-hydroxypropan-2-yl)thiazol-2-yl)(oxo)-λ^6-sulfaneylidene)-2-(3-fluoro-2,6-diisopropylphenyl)acetamide] | 0.2 to 1 µM
14 | CC(C)c1ccc(C#N)c(C(C)C)c1CC(=O)N=S(N)(=O)c1nc(C(C)(C)O)cs1 (stereo not drawn) [Example 120, N-(amino(4-(2-hydroxypropan-2-yl)thiazol-2-yl)(oxo)-λ^6-sulfaneylidene)-2-(3-cyano-2,6-diisopropylphenyl)acetamide] | 0.2 to 1 µM
15 | Cc1ccc(-c2cc(C(C)C)c(CC(=O)N=S(N)(=O)c3ncc(C(C)(C)O)s3)c(C(C)C)c2)cc1C (stereo not drawn) [Example 121, N-(amino(5-(2-hydroxypropan-2-yl)thiazol-2-yl)(oxo)-λ^6-sulfaneylidene)-2-(3,5-diisopropyl-3′,4′-dimethyl-[1,1′-biphenyl]-4-yl)acetamide] | 0.2 to 1 µM
16 | CC(C)c1cc(-c2ccc(Cl)c(Cl)c2)cc(C(C)C)c1CC(=O)N=S(N)(=O)c1ncc(C(C)(C)O)s1 (stereo not drawn) [Example 122, N-(amino(5-(2-hydroxypropan-2-yl)thiazol-2-yl)(oxo)-λ^6-sulfaneylidene)-2-(3′,4′-dichloro-3,5-diisopropyl-[1,1′-biphenyl]-4-yl)acetamide] | 0.2 to 1 µM
17 | CC(C)c1cc(C#N)c(F)c(C(C)C)c1CC(=O)N=S(N)(=O)c1cnc(C(C)(C)O)s1 (stereo not drawn) [Example 123, N-(amino(2-(2-hydroxypropan-2-yl)thiazol-5-yl)(oxo)-λ^6-sulfaneylidene)-2-(4-cyano-3-fluoro-2,6-diisopropylphenyl)acetamide] | 0.2 to 1 µM
18 | CC(C)c1cc(F)c(F)c(C(C)C)c1CC(=O)N=S(N)(=O)c1nc(C(C)(C)O)cs1 (stereo not drawn) [Example 124, N-(amino(4-(2-hydroxypropan-2-yl)thiazol-2-yl)(oxo)-λ^6-sulfaneylidene)-2-(3,4-difluoro-2,6-diisopropylphenyl)acetamide] | 0.2 to 1 µM
19 | CC(C)c1ccc(F)c(C(C)C)c1CC(=O)N=S(N)(=O)c1ccc(C(C)(C)O)s1 (stereo not drawn) [Example 125, N-(amino(5-(2-hydroxypropan-2-yl)thiophen-2-yl)(oxo)-λ^6-sulfaneylidene)-2-(3-fluoro-2,6-diisopropylphenyl)acetamide] | 0.2 to 1 µM
20 | COc1ccc2cc(-c3cc(C(C)C)c(CC(=O)N=S(N)(=O)c4ncc(C(C)(C)O)s4)c(C(C)C)c3)ccc2c1 (stereo not drawn) [Example 126, N-(amino(5-(2-hydroxypropan-2-yl)thiazol-2-yl)(oxo)-λ^6-sulfaneylidene)-2-(2,6-diisopropyl-4-(6-methoxynaphthalen-2-yl)phenyl)acetamide] | 0.2 to 1 µM
21 | CC(C)c1cc(F)cc(C(C)C)c1CC(=O)N=S(N)(=O)c1ncc(C(C)(C)C(=O)O)s1 (stereo not drawn) [Example 127, 2-(2-(N′-(2-(4-fluoro-2,6-diisopropylphenyl)acetyl)sulfamidimidoyl)thiazol-5-yl)-2-methylpropanoic acid] | 5 to 30 µM
22 | CC(C)c1c(F)c(C#N)cc(C2CC2)c1CC(=O)N=S(N)(=O)c1ccc(CN(C)C)cc1F (stereo not drawn) [Example 128, N-(amino(4-((dimethylamino)methyl)-2-fluorophenyl)(oxo)-λ^6-sulfaneylidene)-2-(4-cyano-6-cyclopropyl-3-fluoro-2-isopropylphenyl)acetamide] | 0.2 to 1 µM
23 | Cc1sc(S(N)(=O)=NC(=O)Cc2c(C(C)C)ccc(F)c2C(C)C)cc1C(C)(C)O (stereo not drawn) [Example 129, N-(amino(4-(2-hydroxypropan-2-yl)-5-methylthiophen-2-yl)(oxo)-λ^6-sulfaneylidene)-2-(3-fluoro-2,6-diisopropylphenyl)acetamide] | 0.04 to 0.2 µM
24 | CC(C)c1ccc(F)c(C(C)C)c1CC(=O)N=S(N)(=O)c1ncc(C(C)(C)O)s1 (stereo not drawn) [Example 130, N-(amino(5-(2-hydroxypropan-2-yl)thiazol-2-yl)(oxo)-λ^6-sulfaneylidene)-2-(3-fluoro-2,6-diisopropylphenyl)acetamide] | 1 to 5 µM
25 | CC(C)c1cc2c(c(C(C)C)c1CC(=O)N=S(N)(=O)c1cnc(C(C)(C)O)s1)COC2 (stereo not drawn) [Example 132, N-(amino(2-(2-hydroxypropan-2-yl)thiazol-5-yl)(oxo)-λ^6-sulfaneylidene)-2-(4,6-diisopropyl-1,3-dihydroisobenzofuran-5-yl)acetamide] | 1 to 5 µM
26 | CC(C)c1cc(C#N)c(F)c(C(C)C)c1CC(=O)N=S(N)(=O)c1nc(C(C)(C)O)cs1 (stereo not drawn) [Example 133, N-(amino(4-(2-hydroxypropan-2-yl)thiazol-2-yl)(oxo)-λ^6-sulfaneylidene)-2-(4-cyano-3-fluoro-2,6-diisopropylphenyl)acetamide] | 0.2 to 1 µM
27 | CC(C)c1cc2c(c(C(C)C)c1CC(=O)N=S(N)(=O)c1ccc(CN(C)C)cc1)COC2 (stereo not drawn) [Example 134] | 1 to 5 µM
28 | CC(C)c1ccc2c(c1CC(=O)N=S(N)(=O)c1cnc(C(C)(C)O)s1)CCC2 (stereo not drawn) [Example 135, N-(amino(2-(2-hydroxypropan-2-yl)thiazol-5-yl)(oxo)-λ^6-sulfaneylidene)-2-(5-isopropyl-2,3-dihydro-1H-inden-4-yl)acetamide] | 1 to 5 µM
29 | CC(C)c1cc(-c2ccc3ccccc3c2)cc(C(C)C)c1CC(=O)N=S(N)(=O)c1ccc(CN(C)C)cc1 (stereo not drawn) [Example 136, N-(amino(4-((dimethylamino)methyl)phenyl)(oxo)-λ^6-sulfaneylidene)-2-(2,6-diisopropyl-4-(naphthalen-2-yl)phenyl)acetamide] | 0.2 to 1 µM
30 | CC(C)c1cc(-c2ccc3c(c2)CCOC3)cc(C(C)C)c1CC(=O)N=S(N)(=O)c1sc(C(C)(C)O)nc1CO (stereo not drawn) [Example 137, N-(amino(4-(hydroxymethyl)-2-(2-hydroxypropan-2-yl)thiazol-5-yl)(oxo)-λ^6-sulfaneylidene)-2-(4-(isochroman-6-yl)-2,6-diisopropylphenyl)acetamide] | 0.2 to 1 µM
